Results as given in ChEMBL document CHEMBL1130661, “Design and synthesis of SH3 domain binding ligands: modifications of the consensus sequence XPpXP” (Bioorg Med Chem Lett, 1998).

Test: Compound was tested for the […] domain binding using BIA core binding assay

IC50	Kd	Compound
46 µM		CC(=O)N1CCC[C@@H]1C(=O)N[C@@H](CCCN=C(N)N)C(=O)N1CCC[C@@H]1C(=O)N[C@@H](CC(C)C)C(=O)N1CCC[C@]12CC[C@H]1SC[C@@H](C(=O)N[C@@H](C)C(=O)N3CCC[C@H]3C(=O)NCC(=O)O)N1C2=O
	1600 nM	CC(C)C[C@H](NC(=O)[C@H](CO)NC(=O)[C@@H](N)C(C)C)C(=O)N[C@@H](C)C(=O)N[C@@H](CCCN=C(N)N)C(=O)N[C@@H](CCCN=C(N)N)C(=O)N1CCC[C@H]1C(=O)N[C@@H](CC(C)C)C(=O)N1CCC[C@H]1C(=O)N1CCC[C@H]1C(=O)N[C@@H](CC(C)C)C(=O)N1CCC[C@H]1C(=O)O
75 µM		CC(=O)N1CCC[C@@H]1C(=O)N[C@@H](CCCN=C(N)N)C(=O)N1CCC[C@@H]1C(=O)N[C@@H](CC(C)C)C(=O)N1CCC[C@@]12CC[C@@H]1SC[C@H](C(=O)N[C@@H](C)C(=O)N3CCC[C@H]3C(=O)NCC(=O)O)N1C2=O
